The values below come from BindingDB's records for doi:10.1016/0960-894X(96)00014-5 (1996).

The nature of the test: Compound was tested for inhibition of chymotrypsin-like protease of proteasome from postmortem human liver and brain.

`CC(C)CC(NC(=O)C(CCCN=C(N)N[N+](=O)[O-])NC(=O)C(CCCCCCCCC#N)C1CCCC1)B1OC(C)(C)C(C)(C)O1` (stereo not drawn) [Alpha-ketocarbonyl boronic ester derivative]: the IC50 (in general, the concentration at which inhibition is half-maximal) was 8 nM. This lies in the single-digit nanomolar range. The value for `CC(C)CC(C=O)NC(=O)C(CCCN=C(N)N[N+](=O)[O-])NC(=O)C(CCCCCCCCN1C(=O)c2ccccc2C1=O)C1CCCC1` (stereo not drawn) [Alpha-ketocarbonyl derivative] was 2 nM; that for `CC(C)CC(NC(=O)C(CCCN=C(N)N[N+](=O)[O-])NC(=O)C(CCCCCCCCC#N)C1CCCC1)C(=O)CCl` (stereo not drawn) [Alpha-ketocarbonyl derivative] was more than 1000 nM.
